# According to PMC11374673, “Discovery of isoquinoline sulfonamides as allosteric gyrase inhibitors with activity against fluoroquinolone-resistant bacteria” (Nature Chemistry, 2024):
# Where “and” joins values, the source holds several entries; their conditions need not be identical. Equal values may be shown once.
# Tests used:
# HEK293T = assay: Cytotoxicity assay (MTT); assay type: cell-based, human; details: for MTT data (raw readout): HEK293T
# Protocol: (§1) HepG2 (ATCC HB-8065) and HEK293T (ATCC CRL-3216) cell lines were cultured at 37 °C and 7% CO2 in Dulbecco’s modified Eagle medium (Sigma-Aldrich, D6546) with GlutaMax, penicillin (100 µg ml^−1), streptomycin (100 µg ml^−1) and 10% fetal calf serum. Cells were passaged twice a week by first detaching using 0.05% trypsin in phosphate-buffered saline (PBS) and then diluting to appropriate confluence. Compound cytotoxicity was evaluated using the standard (3-(4,5-dimethylthiazol-2-yl)-2,5-diphenyltetrazolium bromide (MTT) assay protocol (MTT assay protocol for cell viability and proliferation, Merck) with slight changes. HepG2 and HEK293T cells were seeded at a density of 1.5 × 10^4 cells per well in a clear 96-well tissue culture treated plate in a final volume of 100 µl in Dulbecco’s modified Eagle medium, supplemented with fetal bovine serum (1%), GlutaMax and penicillin/streptomycin. Cells were incubated for 24 h at 37 °C, 7% CO2 to allow cells to attach to the plates. […] Incubation was done for 24 h at 37 °C, 7% CO2. After the incubation, MTT was added to each well at a final concentration of 0.40 mg ml^−1. The plates were then incubated for 2 h at 37 °C, 7% CO2. Medium was carefully removed via suction, and purple formazan crystals were resuspended in 100 µl DMSO. Absorbance was read at 570 nm using a Clariostar plate reader with MARS (V4.20). The data were then analysed with GraphPad Prism software. IC50 values were calculated using non-linear fitted curve with variable slope settings, with values adjusted for background (plotted absorbance (ABS)sample = (ABSsample – ABSbackground) / (ABSvehicle – ABSbackground)). Technical triplicates for each condition were used, along with biological duplicates.
# HepG2 = assay: Cytotoxicity assay (MTT); assay type: cell-based, human
# Protocol: as §1
# E. coli W3110 = assay: MIC by broth microdilution; assay type: cell-based, Escherichia coli
# Protocol: (§2) MIC was determined by broth microdilution. Single-colony cultures were grown to exponential phase (OD600 of 0.5) aerobically at 37 °C. In case of strains from the Keio collection, 50 µg ml^−1 kanamycin was supplemented to the media to ascertain a homogeneous population. The bacterial suspensions were diluted 100-fold in CAMHB and 50 µl was added to a twofold serial dilution series of test compounds (50 µl per well) in polypropylene 96-well microtitre plates to reach a volume of 100 µl. The plates were sealed with breathable membranes and incubated overnight at 37 °C with constant shaking (600 r.p.m.).
# K. pneumoniae ATCC 29665 = assay: MIC by broth microdilution; assay type: cell-based, Klebsiella pneumoniae; details: Klebsiella pneumoniae, ATCC29665, broth microdilution; read-out: MIC K. pneumoniae ATCC 29665
# Protocol: as §2
smiles,measurement,setting,value
O=S(=O)(NCCNCc1ccc(-c2ccsc2)cc1)c1cccc2cnccc12 [Compound 57],MTT data (raw readout),"HEK293T; 0.023 uM, experiment n = 1, technical triplicates",0.793 and 0.726 and 0.620
same,MTT data (raw readout),"HEK293T; 0.023 uM, experiment n = 2, technical triplicates",0.807 and 0.803 and 0.611
same,MTT data (raw readout),"HEK293T; 0.068 uM, experiment n = 1, technical triplicates",0.732 and 0.738 and 0.650
same,MTT data (raw readout),"HEK293T; 0.068 uM, experiment n = 2, technical triplicates",0.765 and 0.761 and 0.569
same,MTT data (raw readout),"HEK293T; 0.21 uM, experiment n = 1, technical triplicates",0.722 and 0.771 and 0.628
same,MTT data (raw readout),"HEK293T; 0.21 uM, experiment n = 2, technical triplicates",0.825 and 0.737 and 0.605
same,MTT data (raw readout),"HEK293T; 0.62 uM, experiment n = 1, technical triplicates",0.689 and 0.691 and 0.563
same,MTT data (raw readout),"HEK293T; 0.62 uM, experiment n = 2, technical triplicates",0.748 and 0.715 and 0.545
same,MTT data (raw readout),"HEK293T; 1.85 uM, experiment n = 1, technical triplicates",0.625 and 0.610 and 0.502
same,MTT data (raw readout),"HEK293T; 1.85 uM, experiment n = 2, technical triplicates",0.678 and 0.632 and 0.506
same,MTT data (raw readout),"HEK293T; 5.6 uM, experiment n = 1, technical triplicates",0.490 and 0.501 and 0.402
same,MTT data (raw readout),"HEK293T; 5.6 uM, experiment n = 2, technical triplicates",0.448 and 0.475 and 0.377
same,MTT data (raw readout),"HEK293T; 16.7 uM, experiment n = 1, technical triplicates",0.253 and 0.231 and 0.202
same,MTT data (raw readout),"HEK293T; 16.7 uM, experiment n = 2, technical triplicates",0.296 and 0.267 and 0.213
same,MTT data (raw readout),"HEK293T; 50 uM, experiment n = 1, technical triplicates",0.051 and 0.066 and 0.048
same,MTT data (raw readout),"HEK293T; 50 uM, experiment n = 2, technical triplicates",0.078 and 0.094 and 0.056
same,IC50,"HEK293T; Homo sapiens, HEK-293T, 24 h, MTT",6.6 µM
same,MTT data (raw readout),"HepG2; HepG2, 0.023 uM, experiment n = 1, technical triplicates",0.512 and 0.502 and 0.507
same,MTT data (raw readout),"HepG2; HepG2, 0.023 uM, experiment n = 2, technical triplicates",0.479 and 0.518 and 0.476
same,MTT data (raw readout),"HepG2; HepG2, 0.068 uM, experiment n = 1, technical triplicates",0.477 and 0.445 and 0.510
same,MTT data (raw readout),"HepG2; HepG2, 0.068 uM, experiment n = 2, technical triplicates",0.538 and 0.507 and 0.588
same,MTT data (raw readout),"HepG2; HepG2, 0.21 uM, experiment n = 1, technical triplicates",0.485 and 0.473 and 0.497
same,MTT data (raw readout),"HepG2; HepG2, 0.21 uM, experiment n = 2, technical triplicates",0.529 and 0.523 and 0.494
same,MTT data (raw readout),"HepG2; HepG2, 0.62 uM, experiment n = 1, technical triplicates",0.426 and 0.445 and 0.470
same,MTT data (raw readout),"HepG2; HepG2, 0.62 uM, experiment n = 2, technical triplicates",0.529 and 0.507 and 0.472
same,MTT data (raw readout),"HepG2; HepG2, 1.85 uM, experiment n = 1, technical triplicates",0.360 and 0.379 and 0.361
same,MTT data (raw readout),"HepG2; HepG2, 1.85 uM, experiment n = 2, technical triplicates",0.404 and 0.395 and 0.409
same,MTT data (raw readout),"HepG2; HepG2, 5.6 uM, experiment n = 1, technical triplicates",0.268 and 0.278 and 0.299
same,MTT data (raw readout),"HepG2; HepG2, 5.6 uM, experiment n = 2, technical triplicates",0.322 and 0.303 and 0.267
same,MTT data (raw readout),"HepG2; HepG2, 16.7 uM, experiment n = 1, technical triplicates",0.206 and 0.230 and 0.232
same,MTT data (raw readout),"HepG2; HepG2, 16.7 uM, experiment n = 2, technical triplicates",0.246 and 0.259
same,MTT data (raw readout),"HepG2; HepG2, 50 uM, experiment n = 2, technical triplicates",0.039 and 0.047 and 0.038
same,IC50,"HepG2; Homo sapiens, HepG2, 24 h, MTT, 24 h",8.2 µM
same,MIC,"E. coli W3110; Escherichia coli, W3110, WT, broth microdilution, read-out: MIC E. coli W3110",6.25 µM
same,antimicrobial activity,E. coli W3110; relative to parent compound,equally potent
same,MIC,K. pneumoniae ATCC 29665,12.5 µM
